Source: US5494901A, “Topical compositions for the eye comprising a β-cyclodextrin derivative and a therapeutic agent” (priority 1993, dated 1996)
Values after ≈ are worked out from the molar mass of the structure shown. Where a name gives a salt, the structure may show the parent alone. Read-outs that look alike come from different tables or passages of the source.

Legend:
[1] = Palmitic acid in centrifuged fractions of 2-hydroxypropyl-β-cyclodextrin solution in D2O, by GLC (Example 7); assay type: physicochemical; settings: Wacker HPBCD in D2O, 100,000× g 3 hours
Description: 2.25 g of Wacker 2-hydroxypropyl-β-cyclodextrin (Source C of Example 3) was dissolved in D2 O to give a final volume of 5.0 ml. 100 mg of palmitic acid was added to the solution and the mixture placed in an ultrasonic water bath at 60° C. for several hours, after which it was brought to room temperature and filtered through an 0.22 mμ millipore filter to obtain a clear solution. 3.0 ml of the solution was centrifuged at 100,000× g for 3 hours in a Beckman TL-100 centrifuge. Following centrifugation, aliquots of approximately 1.0 ml were removed from the tube to give upper, middle and lower fractions. A 0.1 ml aliquot from each fraction was pipetted into a tube and 1 mg of cholesterol added as an internal standard. Each tube was then partitioned between ethyl acetate and water to extract all of the palmitic acid and internal standard. The amount of palmitic acid in each aliquot was then determined by GLC using a flame detector.

[2] = Maximum solubility and guest/host molar ratios in 45% hydroxypropyl-β-cyclodextrin (Example 6); assay type: physicochemical; settings: for solubility: 45% hpbcd
Description: 45% (w/v) aqueous solutions of 2-hydroxypropyl-β-cyclodextrin using either source A or B (see Example 3) were prepared, and the maximum solubilities of phenoltetrabromphthalein and of cholesterol were determined per 5.0 ml of solution using standard techniques. Phenoltetrabromphthalein concentration was determined spectrophotometrically at 580 mμ. Cholesterol concentration was determined by both GLC and by liquid scintillation counting using cholesterol of known specific activity. The data are shown below, along with a summary of data from other examples.

[3] = tested on: intraocular pressure; assay: Intraocular pressure after 1% methazolamide in 45% HPBCD, applanation tonometry (Example 5); assay type: in vivo, New Zealand white rabbits; settings: dissolved in HPBCD
Description: Solutions of 1% methazolamide in 45% HPBCD and the HPBCD alone (control) were applied to paired right and left eyes of New Zealand white rabbits. Intraocular pressure was measured by applanation tonometry until pressures returned to baseline.

[4] = cited from earlier work
[5] = tested on: intraocular pressure; assay: Intraocular pressure after topical acetazolamide preparations, Perkins applanation tonometer (Example 2); assay type: in vivo, New Zealand white rabbits; settings: 1% Na-acetazolamide in 0.9% NaCl, FIG. 1
Description: Solutions of 1% acetazolamide in 45% HPBCD and 1% Na-acetazolamide in 0.9% NaCl were applied to paired right and left eyes of 10 New Zealand white rabbits (the HPBCD is Type B of Example 3). Intraocular pressure was measured with a Perkins applanation tonometer at hourly intervals until all pressures returned to baseline. […] As a further control, the acetazolamide/HPBCD preparation was compared with 45% HPBCD alone (control).

[6] = Maximum solubility of acetazolamide with commercial HPBCD preparations (Example 3); assay type: physicochemical
Description: The solubility of the active agent can be determined by any of the conventional methods available. For example, solutions of the agent, prepared with and without a β-cyclodextrin derivative, can be filtered (e.g., using a 0.22 or 0.45 μm membrane filter) to eliminate undissolved agent, and subjected to chromatography (e.g., reverse-phase HPLC) to determine the concentration of agent present in the solution.
In order to assess the efficiency of 3 different commercially available preparations of HPBCD, the maximum solubility of acetazolamide (maximum solubility in water: 0.1%) was determined for each. The three sources of HPBCD were (A) Roquette (RE No. 446601), (B) American Maize ("Encapsin"), and (C) Wacker Chemical (BetaW7, HP0.9).

[7] = Maximum solubility and guest/host molar ratios in 45% hydroxypropyl-β-cyclodextrin (Example 6); assay type: physicochemical; settings: source C (Wacker)
[8] = tested on: anterior chamber of the eye; assay: Fluorescence in anterior chamber after topical Na-Fluorescein, slit lamp biomicroscope; assay type: in vivo, New Zealand white rabbit; settings: 2% Na-Fluorescein in 0.9% saline; at one hour; rabbit
Description: Solutions of 2% Na-Fluorescein were prepared in 0.9% Saline, 4.5% HPBCD, and 45% HPBCD (the HPBCD is Type B of Example 3). Each solution was applied to the eye of a New Zealand white rabbit and observed for a period of one hour. The anterior chamber of the eye was examined with a standard blue light source on a slit lamp biomicroscope.

[9] = tested on: intraocular pressure of the normal rabbit eye; settings: topical, Silvestrini; cited from earlier work
[10] = with β-cyclodextrin at either 3% or 1.5%; topical; Grove et al.; cited from earlier work
[11] = source A (Roquette), read-out: maximum solubility
[12] = source B (A. Maize), read-out: maximum solubility

CCCCCCCCCCCCCCCC(=O)O [Palmitic acid, palmitic acid]
Palmitic acid in fraction ([1]; Lower fraction): 23.4 μg/0.1 ml | Palmitic acid in fraction ([1]; Middle fraction): 34.0 μg/0.1 ml | Palmitic acid in fraction ([1]; Upper fraction): 41.0 μg/0.1 ml

C[C@@H](CO)CCC[C@@H](C)[C@H]1CC[C@H]2[C@@H]3CC=C4C[C@@H](O)CC[C@]4(C)[C@H]3CC[C@]12C [26-hydroxy cholesterol]
guest/host molar ratio [2]: .16 | solubility ([2]; maximum solubility): 20000 µg/mL

CC(=O)/N=c1/sc(S(N)(=O)=O)nn1C [methazolamide]
duration of effect relative to acetazolamide [3]: longer duration of effect than does acetazolamide | potency relative to acetazolamide [3]: more potent

CNCC(O)c1ccc(OC(=O)C(C)(C)C)c(OC(=O)C(C)(C)C)c1 (centres unmarked) [dipiviphrine]
sensitivity developed by patients ([4]; human, in vivo): frequently develop sensitivity

CC(=O)Nc1nnc(S(N)(=O)=O)s1 [Na-acetazolamide]
lowering of intraocular pressure [5]: only a transient, non-statistically significant lowering of intraocular pressure

CC(=O)Nc1nnc(S(N)(=O)=O)s1 [acetazolamide]
solubility ([6]; hpbcd solution, HPBCD source A, Roquette (RE No. 446601), read-out: maximum solubility): 1000 µg/mL (≈ 4.5 mM) | solubility ([6]; hpbcd solution, HPBCD source B, American Maize ("Encapsin"), read-out: maximum solubility): 10000 µg/mL (≈ 45 mM) | solubility ([6]; hpbcd solution, HPBCD source C, Wacker Chemical (BetaW7, HP0.9), read-out: maximum solubility): 18000 µg/mL (≈ 81 mM) | solubility ([6]; water, read-out: maximum solubility in water): 1000 µg/mL (≈ 4.5 mM) | guest/host molar ratio ([2]; 45% HPBCD, source B (A. Maize)): 0.31 | solubility [2, 11]: > 5000 µg/mL | solubility [2, 12]: 20000 µg/mL | guest/host molar ratio ([7]; 45% HPBCD): 0.31 | solubility ([7]; 45% hpbcd): 20000 µg/mL

CNC[C@H](O)c1ccc(O)c(O)c1 [epinephrine]
sensitivity developed by patients ([4]; topical, used for a year or longer): frequently develop sensitivity

O=C1OC2(c3ccc(O)cc3Oc3cc(O)ccc32)c2ccccc21 [Na-Fluorescein]
fluorescence seen in the eye [8]: considerable fluorescence

CC(=O)Nc1nnc(S(N)(=O)=O)s1 [disodium salts of acetazolamide]
lowering of intraocular pressure [9]: can be used to lower the intraocular pressure of the normal rabbit eye

CC(C)CCC[C@@H](C)[C@H]1CC[C@H]2[C@@H]3CC=C4C[C@@H](O)CC[C@]4(C)[C@H]3CC[C@]12C [Cholesterol, cholesterol]
guest/host molar ratio ([2]; 45% HPBCD, source A (Roquette)): .0015 | guest/host molar ratio ([2]; 45% HPBCD, source B (A. Maize)): .038 | solubility [2, 11]: 80 µg/mL | solubility [2, 12]: 4300 µg/mL

CCN[C@H]1C[C@H](C)S(=O)(=O)c2sc(S(N)(=O)=O)cc21 [L-671152]
ocular bioavailability compared to inhibitor administered alone [10]: about 50%
